Source: PMC2697495 (The Journal of pharmacy and pharmacology, 2008)
Marks after values point to notes of the source that are not given here.

How the values were obtained:
[1] = tested on: endogenous β-glucuronidase, HEK293 vector control; experiment: Estradiol glucuronide hydrolysis by HEK293 vector control cell microsomes; format: in vitro ADME, human; conditions: HEK293 control 0.25 mg/ml; without saccharolactone; E-3-G 100 μM, E-17-G 200 μM; n=3
[2] = tested on: human intestinal microsomes; experiment: Estradiol glucuronide formation in 6 hours by human intestinal microsomes; format: in vitro ADME; conditions: for Apparent nmoles formed in 6 hours: intestinal microsomes 0.5 mg protein/ml, β-estradiol 100 μM and UDPGA, mean of triplicate; for Predicted actual nmoles formed in 6 hours: intestinal microsomes, apparent formed plus degraded
human kidney microsomes = experiment: Estradiol glucuronide formation in 6 hours by human kidney microsomes; format: in vitro ADME; conditions: for Apparent nmoles formed in 6 hours: kidney microsomes 0.5 mg protein/ml, β-estradiol 100 μM and UDPGA, mean of triplicate; for Predicted actual nmoles formed in 6 hours: kidney microsomes, apparent formed plus degraded
[3] = tested on: pooled human liver microsomes (pHLMs); conditions: pHLMs 0.5 mg protein/ml; β-estradiol 100 μM and UDPGA; mean of triplicate
[4] = biological target: endogenous β-glucuronidase, human lung microsomes (Homo sapiens, UniProt P08236); experiment: Estradiol glucuronide hydrolysis by human lung microsomes; conditions: lung microsomes 0.5 mg/ml; without saccharolactone; E-3-G 100 μM, E-17-G 200 μM; n=3
[5] = tested on: endogenous β-glucuronidase, human kidney microsomes; experiment: Estradiol glucuronide hydrolysis by human kidney microsomes; conditions: for Nmoles degraded as a % of nmoles formed: kidney microsomes; for Nmoles degraded in 6 hours: kidney microsomes 0.5 mg protein/ml, estradiol glucuronide without UDPGA; for percent glucuronide remaining after 6 hours: kidney microsomes 0.5 mg/ml, without saccharolactone, E-3-G 100 μM, E-17-G 200 μM, n=3
[6] = tested on: endogenous β-glucuronidase, human intestinal microsomes; experiment: Estradiol glucuronide hydrolysis by human intestinal microsomes; conditions: for Nmoles degraded as a % of nmoles formed: intestinal microsomes; for Nmoles degraded in 6 hours: intestinal microsomes 0.5 mg protein/ml, estradiol glucuronide without UDPGA; for percent glucuronide remaining after 6 hours: intestine microsomes 0.5 mg/ml, without saccharolactone, E-3-G 100 μM, E-17-G 200 μM, n=3
[7] = Estradiol glucuronide stability in phosphate buffer; conditions: 50 mM phosphate buffer pH 7.5, 37 °C, no enzyme; without saccharolactone; E-3-G 100 μM, E-17-G 200 μM; n=3
[8] = biological target: T1, endogenous β-glucuronidase, pooled human liver microsomes (Homo sapiens, UniProt P08236); experiment: Estradiol glucuronide hydrolysis; conditions: for percent glucuronide remaining after 6 hours: pHLM 0.5 mg/ml, E-3-G 100 μM, E-17-G 200 μM, n=3; for Nmoles degraded in 6 hours: pHLMs 0.5 mg protein/ml, estradiol glucuronide without UDPGA; for Nmoles degraded as a % of nmoles formed: pHLMs
T1 sequence (P08236 23-651): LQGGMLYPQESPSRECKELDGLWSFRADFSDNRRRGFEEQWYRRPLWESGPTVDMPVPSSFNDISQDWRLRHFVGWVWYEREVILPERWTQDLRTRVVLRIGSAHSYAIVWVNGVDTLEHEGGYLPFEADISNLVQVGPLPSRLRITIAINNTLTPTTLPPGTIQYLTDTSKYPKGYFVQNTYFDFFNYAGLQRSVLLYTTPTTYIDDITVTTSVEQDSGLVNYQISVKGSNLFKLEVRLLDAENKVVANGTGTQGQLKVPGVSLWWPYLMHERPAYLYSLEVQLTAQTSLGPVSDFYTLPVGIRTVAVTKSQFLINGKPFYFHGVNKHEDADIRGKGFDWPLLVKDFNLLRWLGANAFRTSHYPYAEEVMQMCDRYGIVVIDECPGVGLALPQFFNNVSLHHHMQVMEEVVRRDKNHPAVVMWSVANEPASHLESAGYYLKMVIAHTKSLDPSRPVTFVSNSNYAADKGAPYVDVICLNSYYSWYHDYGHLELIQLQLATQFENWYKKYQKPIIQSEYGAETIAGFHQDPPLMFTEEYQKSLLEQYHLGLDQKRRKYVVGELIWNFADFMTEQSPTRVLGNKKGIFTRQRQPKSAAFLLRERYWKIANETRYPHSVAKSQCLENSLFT

microsomes = conditions: 50 μg alamethicin per mg microsomal protein, ref Fisher et al 2000; cited from earlier work

Row | Compound | percent glucuronide remaining after 6 hours [1] [%] | Apparent nmoles formed in 6 hours [2] [nmol] | Predicted actual nmoles formed in 6 hours [2] [nmol] | Apparent nmoles formed in 6 hours (human kidney microsomes) [nmol] | Predicted actual nmoles formed in 6 hours (human kidney microsomes) [nmol] | Apparent nmoles formed in 6 hours [3] [nmol] | percent glucuronide remaining after 6 hours [4] [%] | Nmoles degraded as a % of nmoles formed [5] [%] | Nmoles degraded in 6 hours [5] [nmol] | percent glucuronide remaining after 6 hours [5] | Nmoles degraded as a % of nmoles formed [6] [%] | Nmoles degraded in 6 hours [6] [nmol] | percent glucuronide remaining after 6 hours [6] | percent glucuronide remaining after 6 hours [7] [%] | percent glucuronide remaining after 6 hours ([8]; with 10 mM saccharolactone) | percent glucuronide remaining after 6 hours ([8]; without saccharolactone) | Nmoles degraded in 6 hours [8] [nmol] | further results
1 | C[C@]12CC[C@@H]3c4ccc(O)cc4CC[C@H]3[C@@H]1CC[C@@H]2O[C@@H]1O[C@H](C(=O)O)[C@@H](O)[C@H](O)[C@H]1O [E-17-G, estradiol 17-glucuronide] | 104±3 | 0.58 | 0.58 | 1.11 | 1.11 | 1.23 | 92±6 | 0 | 0 | 104±3% | 0 | 0 | 110±4 ^b % | 102±13 | 84±3% | 86±2 ^b % | 0.29 | Nmoles degraded as a % of nmoles formed ([8]; listed as Estradiol-17-Glucuronide): 19%; Nmoles degraded as a % of nmoles formed ([8]; listed as estradiol-17 glucuronide): 19%
2 | alamethicin |  |  |  |  |  |  |  |  |  |  |  |  |  |  |  |  |  | conjugation rate relative to that in absence of alamethicin (microsomes): 2 to 3 times
3 | C[C@]12CC[C@@H]3c4ccc(O[C@@H]5O[C@H](C(=O)O)[C@@H](O)[C@H](O)[C@H]5O)cc4CC[C@H]3[C@@H]1CC[C@@H]2O [E-3-G, estradiol 3-glucuronide] | 102±4 | 16.7 | 16.7 | 2.99 | 2.99 | 3.51 | 85±6 | 0 | 0 | 104±1 ^a^, ^b % | 0 | 0 | 104±3% | 101±5 | 84±2 ^a % | 82±1 ^a^, ^b % | 0.36 | Nmoles degraded as a % of nmoles formed [8]: 9.30%
